Active and inactive are the calls of the source. The rule behind the calls is not given here.
Tests used:
[1] = biological target: Platelet-derived growth factor receptor beta (Homo sapiens) (UniProt P09619); test: Inhibition of human PDGFRbeta at 1 uM by Eurofins kinase assay
MOLM-13 [2] = test: Induction of cell cycle arrest in human MOLM-13 cells assessed as accumulation of cells at S phase at 1 uM measured after 48 hrs by PI staining based flow cytometry analysis (reference value: 45.3%); format: functional
[3] = biological target: Insulin receptor (Homo sapiens) (UniProt P06213); test: Inhibition of human INSR at 1 uM by Eurofins kinase assay
OE33 = test: Antiproliferative activity against human OE33 cells assessed as inhibition of cell growth measured after 72 hrs by Celltiter-glo luminescent cell viability assay; format: functional, cell-based; conditions: OE33, 72 h
[4] = biological target: Aurora kinase A (Homo sapiens) (UniProt O14965); test: Inhibition of human AuroraA at 1 uM by Eurofins kinase assay
Jurkat = test: Antiproliferative activity against human Jurkat cells assessed as inhibition of cell growth measured after 72 hrs by Celltiter-glo luminescent cell viability assay; format: functional, cell-based
[5] = biological target: Mitogen-activated protein kinase kinase kinase 1 (Homo sapiens) (UniProt Q13233); test: Inhibition of human MEKK1 at 1 uM by Eurofins kinase assay
HL-60 = test: Antiproliferative activity against human HL-60 cells harbouring wild type FLT3 assessed as inhibition of cell growth measured after 72 hrs by Celltiter-glo luminescent cell viability assay; format: functional, cell-based; conditions: HL-60, 72 h
[6] = biological target: Serine/threonine-protein kinase WNK1 (Homo sapiens) (UniProt Q9H4A3); test: Inhibition of human WNK1 at 1 uM by Eurofins kinase assay
[7] = biological target: Mast/stem cell growth factor receptor Kit (Homo sapiens) (UniProt P10721); test: Inhibition of human ckit at 1 uM by Eurofins kinase assay
[8] = Antiproliferative activity against mouse Ba/F3 FLT3-ITD cells assessed as inhibition of cell growth measured after 72 hrs by Celltiter-glo luminescent cell viability assay; format: functional, cell-based
[9] = biological target: Cyclin-dependent kinase 2/cyclin A (Homo sapiens) (UniProt P24941+P20248+P78396); test: Inhibition of human CDK2/cyclinA at 1 uM by Eurofins kinase assay; format: protein-complex assay
MOLM-13 [10] = test: Induction of apoptosis in human MOLM-13 cells assessed as viable cells at 1 uM measured after 48 hrs by annexin-V and PI staining based flow cytometry analysis (reference value: 88.7%); format: functional; conditions: read-out: Activity
MOLM-13 [11] = test: Induction of cell cycle arrest in human MOLM-13 cells assessed as accumulation of cells at G2 phase at 1 uM measured after 48 hrs by PI staining based flow cytometry analysis (reference value: 12.5%); format: functional
SBC-5 = test: Antiproliferative activity against human SBC-5 cells assessed as inhibition of cell growth measured after 72 hrs by Celltiter-glo luminescent cell viability assay; format: functional, cell-based; conditions: SBC-5, 72 h
[12] = biological target: Fibroblast growth factor receptor 2 (Homo sapiens) (UniProt P21802); test: Inhibition of human FGFR2 at 1 uM by Eurofins kinase assay
[13] = biological target: Mitogen-activated protein kinase 8 (Homo sapiens) (UniProt P45983); test: Inhibition of human JNK1 at 1 uM by Eurofins kinase assay
MV4-11 = test: Antiproliferative activity against human MV4-11 cells assessed as inhibition of cell growth measured after 72 hrs by Celltiter-glo luminescent cell viability assay; format: functional, cell-based; conditions: MV4-11, 72 h
MOLM-13 [14] = test: Induction of cell cycle arrest in human MOLM-13 cells assessed as accumulation of cells at G1 phase at 0.3 uM measured after 48 hrs by PI staining based flow cytometry analysis (reference value: 42.8%); format: functional
[15] = biological target: Dual specificity mitogen-activated protein kinase kinase 1 (Homo sapiens) (UniProt Q02750); test: Inhibition of human MEK1 at 1 uM by Eurofins kinase assay
[16] = biological target: High affinity nerve growth factor receptor (Homo sapiens) (UniProt P04629); test: Inhibition of human TrkA at 1 uM by Eurofins kinase assay
[17] = tested on: Receptor-type tyrosine-protein kinase FLT3 (Homo sapiens), P36888 [D835Y]; test: Inhibition of human FLT3 D835Y mutant at 1 uM by Eurofins kinase assay
[18] = Toxicity in female NSG mouse assessed as effect on body weight loss at 20 to 40 mg/kg, po measured after 21 days; format: organism-based; conditions: in vivo, 504 h, dose 20-40 mg/kg, time 21 day
MOLM-13 [19] = test: Antiproliferative activity against human MOLM-13 cells assessed as inhibition of cell growth measured after 72 hrs by Celltiter-glo luminescent cell viability assay; format: functional, cell-based; conditions: MOLM-13, 72 h
[20] = biological target: Macrophage colony-stimulating factor 1 receptor (Homo sapiens, UniProt P07333); test: Inhibition of human FMS assessed as residual activity at 1 uM by Eurofins kinase assay relative to control
[21] = biological target: Mitogen-activated protein kinase 1 (Homo sapiens) (UniProt P28482); test: Inhibition of human MAPK1 at 1 uM by Eurofins kinase assay
MOLM-13 [22] = test: Induction of apoptosis in human MOLM-13 cells assessed as early apoptotic cells at 0.3 uM measured after 48 hrs by annexin-V and PI staining based flow cytometry analysis (reference value: 8.92%); format: functional
[23] = biological target: Tyrosine-protein kinase Lck (Homo sapiens) (UniProt P06239); test: Inhibition of human LCK at 1 uM by Eurofins kinase assay
MOLM-13 [24] = test: Inhibition of STAT5 phosphorylation in human MOLM-13 cells incubated for 2 hrs by Western blot analysis; format: cell-based; conditions: dose 0.04-5 µM
U-87 MG = test: Antiproliferative activity against human U-87 MG cells assessed as inhibition of cell growth measured after 72 hrs by Celltiter-glo luminescent cell viability assay; format: functional, cell-based, U-87MG ATCC
[25] = biological target: Fibroblast growth factor receptor 3 (Homo sapiens) (UniProt P22607); test: Inhibition of human FGFR3 at 1 uM by Eurofins kinase assay
[26] = Volume of distribution in Sprague-Dawley rat at 5 mg/kg, iv measured upto 48 hrs by LC-MS/MS analysis; format: ADME, organism-based; conditions: in vivo
[27] = Tmax in Sprague-Dawley rat at 20 mg/kg, po measured upto 48 hrs by LC-MS/MS analysis; format: ADME, organism-based; conditions: in vivo
[28] = Half life in Sprague-Dawley rat at 5 mg/kg, iv measured upto 48 hrs by LC-MS/MS analysis; format: ADME, organism-based; conditions: in vivo
[29] = biological target: Epithelial discoidin domain-containing receptor 1 (Homo sapiens) (UniProt Q08345); test: Inhibition of human DDR1 at 1 uM by Eurofins kinase assay
[30] = Toxicity in female NSG mouse assessed as effect on liver at 20 to 40 mg/kg, po measured after 21 days by H and E staining based analysis; format: organism-based; conditions: in vivo, 504 h, dose 20-40 mg/kg, time 21 day
[31] = Toxicity in female NSG mouse assessed as effect on spleen at 20 to 40 mg/kg, po measured after 21 days by H and E staining based analysis; format: organism-based; conditions: in vivo, 504 h, dose 20-40 mg/kg, time 21 day
[32] = Toxicity in female NSG mouse assessed as effect on kidney at 20 to 40 mg/kg, po measured after 21 days by H and E staining based analysis; format: organism-based; conditions: in vivo, 504 h, dose 20-40 mg/kg, time 21 day
[33] = biological target: Inhibitor of nuclear factor kappa-B kinase subunit beta (Homo sapiens) (UniProt O14920); test: Inhibition of human IKKB at 1 uM by Eurofins kinase assay

Sequence of Mitogen-activated protein kinase kinase kinase 1 (Homo sapiens) (Q13233 whole entry): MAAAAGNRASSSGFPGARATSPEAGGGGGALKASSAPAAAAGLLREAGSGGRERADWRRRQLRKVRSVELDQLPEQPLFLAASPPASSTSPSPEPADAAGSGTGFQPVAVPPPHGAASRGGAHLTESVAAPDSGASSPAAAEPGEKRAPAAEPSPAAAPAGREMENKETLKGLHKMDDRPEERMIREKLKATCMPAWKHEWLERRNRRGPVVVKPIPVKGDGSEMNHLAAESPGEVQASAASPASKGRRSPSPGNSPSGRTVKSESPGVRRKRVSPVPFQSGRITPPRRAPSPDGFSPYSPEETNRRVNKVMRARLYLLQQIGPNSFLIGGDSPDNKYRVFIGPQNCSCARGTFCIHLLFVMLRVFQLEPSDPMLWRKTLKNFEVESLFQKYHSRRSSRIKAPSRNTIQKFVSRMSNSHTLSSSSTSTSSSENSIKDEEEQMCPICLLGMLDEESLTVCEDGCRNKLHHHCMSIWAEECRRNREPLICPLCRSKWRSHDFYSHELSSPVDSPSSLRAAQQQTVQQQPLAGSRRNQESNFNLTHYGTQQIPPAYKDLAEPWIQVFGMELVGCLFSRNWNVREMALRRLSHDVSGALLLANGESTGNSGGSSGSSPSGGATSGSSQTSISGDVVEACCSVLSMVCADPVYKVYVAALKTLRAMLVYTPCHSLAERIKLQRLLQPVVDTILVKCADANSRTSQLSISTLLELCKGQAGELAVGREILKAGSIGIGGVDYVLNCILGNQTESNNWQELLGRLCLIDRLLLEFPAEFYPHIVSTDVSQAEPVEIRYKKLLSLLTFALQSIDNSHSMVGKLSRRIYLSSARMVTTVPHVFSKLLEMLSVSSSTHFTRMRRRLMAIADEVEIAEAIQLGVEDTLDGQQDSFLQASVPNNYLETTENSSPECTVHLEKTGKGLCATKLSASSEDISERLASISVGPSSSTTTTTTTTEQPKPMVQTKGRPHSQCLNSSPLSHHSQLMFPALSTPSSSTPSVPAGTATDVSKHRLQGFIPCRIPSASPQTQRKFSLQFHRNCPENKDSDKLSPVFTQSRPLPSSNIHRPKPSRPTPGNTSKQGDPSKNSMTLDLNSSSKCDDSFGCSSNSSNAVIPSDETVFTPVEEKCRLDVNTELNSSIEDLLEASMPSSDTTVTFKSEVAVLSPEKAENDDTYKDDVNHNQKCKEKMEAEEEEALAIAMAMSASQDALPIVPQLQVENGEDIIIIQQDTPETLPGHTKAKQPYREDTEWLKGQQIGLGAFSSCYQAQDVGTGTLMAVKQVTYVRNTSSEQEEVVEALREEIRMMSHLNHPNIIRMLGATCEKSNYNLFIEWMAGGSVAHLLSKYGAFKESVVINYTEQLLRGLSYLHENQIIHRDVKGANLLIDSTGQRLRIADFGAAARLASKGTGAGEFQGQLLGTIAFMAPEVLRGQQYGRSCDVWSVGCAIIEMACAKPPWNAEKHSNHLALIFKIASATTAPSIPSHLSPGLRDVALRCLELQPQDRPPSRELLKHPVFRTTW
Sequence of Dual specificity mitogen-activated protein kinase kinase 1 (Homo sapiens) (Q02750 whole entry): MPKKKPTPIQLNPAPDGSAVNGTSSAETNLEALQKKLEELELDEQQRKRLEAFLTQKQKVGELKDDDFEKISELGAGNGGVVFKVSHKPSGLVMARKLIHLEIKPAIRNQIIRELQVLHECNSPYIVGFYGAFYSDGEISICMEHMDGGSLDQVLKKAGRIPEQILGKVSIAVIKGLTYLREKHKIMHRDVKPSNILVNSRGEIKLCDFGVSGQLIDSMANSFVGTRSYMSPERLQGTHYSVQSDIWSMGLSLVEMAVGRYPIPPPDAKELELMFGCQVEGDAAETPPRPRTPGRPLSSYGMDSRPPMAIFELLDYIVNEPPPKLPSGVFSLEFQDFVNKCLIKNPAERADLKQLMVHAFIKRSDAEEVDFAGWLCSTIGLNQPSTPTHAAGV
Sequence of Aurora kinase A (Homo sapiens) (O14965 whole entry): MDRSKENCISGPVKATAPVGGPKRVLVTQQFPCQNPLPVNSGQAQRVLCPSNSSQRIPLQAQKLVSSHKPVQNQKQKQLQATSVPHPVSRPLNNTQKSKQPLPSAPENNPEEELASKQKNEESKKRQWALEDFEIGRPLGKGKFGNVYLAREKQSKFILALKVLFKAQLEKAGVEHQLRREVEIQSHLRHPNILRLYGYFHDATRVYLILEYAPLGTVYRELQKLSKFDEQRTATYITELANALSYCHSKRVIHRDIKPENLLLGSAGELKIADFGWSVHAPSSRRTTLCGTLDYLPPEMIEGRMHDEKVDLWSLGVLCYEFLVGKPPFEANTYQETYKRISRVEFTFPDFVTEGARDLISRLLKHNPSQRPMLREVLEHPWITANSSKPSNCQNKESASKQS
Sequence of Mitogen-activated protein kinase 1 (Homo sapiens) (P28482 whole entry): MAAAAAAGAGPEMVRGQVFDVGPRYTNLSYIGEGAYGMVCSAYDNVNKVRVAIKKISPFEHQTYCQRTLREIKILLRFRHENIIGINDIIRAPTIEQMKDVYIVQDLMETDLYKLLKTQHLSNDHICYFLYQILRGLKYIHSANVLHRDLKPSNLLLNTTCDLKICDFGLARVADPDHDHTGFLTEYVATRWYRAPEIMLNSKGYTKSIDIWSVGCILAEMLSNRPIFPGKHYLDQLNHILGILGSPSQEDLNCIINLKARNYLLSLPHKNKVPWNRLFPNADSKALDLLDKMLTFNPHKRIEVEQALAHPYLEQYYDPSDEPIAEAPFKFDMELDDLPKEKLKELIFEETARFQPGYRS
Sequence of Serine/threonine-protein kinase WNK1 (Homo sapiens) (Q9H4A3 whole entry, looked up): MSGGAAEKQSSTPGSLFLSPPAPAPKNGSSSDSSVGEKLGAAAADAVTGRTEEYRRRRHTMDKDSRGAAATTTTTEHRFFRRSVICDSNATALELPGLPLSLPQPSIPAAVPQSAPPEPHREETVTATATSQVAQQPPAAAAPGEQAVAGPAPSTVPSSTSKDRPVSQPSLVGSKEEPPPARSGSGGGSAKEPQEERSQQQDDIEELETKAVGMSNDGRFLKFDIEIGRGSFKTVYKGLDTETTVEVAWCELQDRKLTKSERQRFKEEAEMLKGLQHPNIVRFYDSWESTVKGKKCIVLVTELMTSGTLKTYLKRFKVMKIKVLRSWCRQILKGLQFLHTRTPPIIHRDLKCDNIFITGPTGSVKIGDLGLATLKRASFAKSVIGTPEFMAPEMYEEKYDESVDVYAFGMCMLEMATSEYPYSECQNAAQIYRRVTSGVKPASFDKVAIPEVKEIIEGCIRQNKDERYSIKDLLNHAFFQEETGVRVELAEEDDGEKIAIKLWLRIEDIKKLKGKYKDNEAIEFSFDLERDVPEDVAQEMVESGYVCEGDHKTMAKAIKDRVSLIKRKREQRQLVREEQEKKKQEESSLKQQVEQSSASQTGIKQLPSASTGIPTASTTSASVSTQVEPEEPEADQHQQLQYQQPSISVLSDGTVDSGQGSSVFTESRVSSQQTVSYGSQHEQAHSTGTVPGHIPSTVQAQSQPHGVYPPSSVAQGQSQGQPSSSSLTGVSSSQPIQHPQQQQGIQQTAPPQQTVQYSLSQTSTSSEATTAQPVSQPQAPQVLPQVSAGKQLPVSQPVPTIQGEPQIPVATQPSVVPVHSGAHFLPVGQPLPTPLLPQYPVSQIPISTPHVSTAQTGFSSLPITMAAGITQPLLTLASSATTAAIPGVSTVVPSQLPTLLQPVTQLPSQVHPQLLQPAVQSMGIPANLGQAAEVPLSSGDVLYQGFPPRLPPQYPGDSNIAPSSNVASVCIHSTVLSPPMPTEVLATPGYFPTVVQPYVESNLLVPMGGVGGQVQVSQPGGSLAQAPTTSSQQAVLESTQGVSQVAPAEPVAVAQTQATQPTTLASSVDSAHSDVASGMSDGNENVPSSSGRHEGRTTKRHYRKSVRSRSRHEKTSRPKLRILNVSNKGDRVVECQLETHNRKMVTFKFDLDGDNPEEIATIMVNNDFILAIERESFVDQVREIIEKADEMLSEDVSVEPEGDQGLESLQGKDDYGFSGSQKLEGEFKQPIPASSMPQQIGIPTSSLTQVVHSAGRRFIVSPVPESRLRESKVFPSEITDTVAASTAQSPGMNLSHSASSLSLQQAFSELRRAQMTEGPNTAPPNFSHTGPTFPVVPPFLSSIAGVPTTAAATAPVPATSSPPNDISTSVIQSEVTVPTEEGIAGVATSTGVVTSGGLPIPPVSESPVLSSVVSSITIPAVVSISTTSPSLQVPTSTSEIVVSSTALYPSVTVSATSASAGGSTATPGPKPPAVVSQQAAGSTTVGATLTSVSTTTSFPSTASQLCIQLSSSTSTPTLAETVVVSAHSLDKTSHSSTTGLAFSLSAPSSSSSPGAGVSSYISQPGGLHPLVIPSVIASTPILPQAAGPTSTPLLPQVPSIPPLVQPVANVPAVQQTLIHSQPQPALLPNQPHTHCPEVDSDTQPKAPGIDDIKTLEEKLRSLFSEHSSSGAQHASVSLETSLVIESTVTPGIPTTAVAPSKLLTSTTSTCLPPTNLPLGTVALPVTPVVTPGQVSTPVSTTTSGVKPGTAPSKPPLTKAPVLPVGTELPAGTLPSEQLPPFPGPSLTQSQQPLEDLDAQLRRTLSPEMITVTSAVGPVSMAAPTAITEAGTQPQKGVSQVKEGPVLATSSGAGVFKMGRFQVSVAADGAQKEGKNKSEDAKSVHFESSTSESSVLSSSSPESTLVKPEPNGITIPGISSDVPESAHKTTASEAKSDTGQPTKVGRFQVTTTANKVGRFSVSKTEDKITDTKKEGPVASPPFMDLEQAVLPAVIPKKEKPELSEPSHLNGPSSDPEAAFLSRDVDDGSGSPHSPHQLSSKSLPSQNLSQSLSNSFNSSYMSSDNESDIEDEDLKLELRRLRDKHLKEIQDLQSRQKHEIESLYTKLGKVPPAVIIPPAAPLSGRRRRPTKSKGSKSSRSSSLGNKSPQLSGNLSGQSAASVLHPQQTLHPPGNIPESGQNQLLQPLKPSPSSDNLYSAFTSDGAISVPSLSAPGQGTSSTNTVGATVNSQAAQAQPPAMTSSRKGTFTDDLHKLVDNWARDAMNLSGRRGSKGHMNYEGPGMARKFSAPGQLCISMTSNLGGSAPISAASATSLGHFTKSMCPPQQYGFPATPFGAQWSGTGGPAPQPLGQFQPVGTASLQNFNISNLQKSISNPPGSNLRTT

O=C(Nc1ccc(Oc2ccnc(NC(=O)N3CC(O)C3)c2)c(F)c1)c1cn(-c2cccnc2)nn1
inhibition [1]: inactive | Activity (MOLM-13 [2]): 3.57% | inhibition [3]: inactive | IC50 (OE33): > 30 µM | inhibition [4]: inactive | IC50 (Jurkat): > 30 µM | inhibition [5]: inactive | IC50 (HL-60): 7.7 µM | inhibition [6]: inactive | inhibition [7]: inactive | IC50 [8]: 0.085 µM | inhibition [9]: inactive | viability at 1 µM (MOLM-13 [10]): 56.7% | Activity (MOLM-13 [11]): 4.33% | IC50 (SBC-5): > 30 µM | inhibition [12]: inactive | inhibition [13]: inactive | IC50 (MV4-11): 0.13 µM | Activity (MOLM-13 [14]): 79.4% | inhibition [15]: inactive | inhibition [16]: inactive | inhibition [17]: inactive | Activity [18]: Non-toxic | IC50 (MOLM-13 [19]): 0.062 µM | Activity [20]: 22% | inhibition [21]: inactive | Activity (MOLM-13 [22]): 25% | inhibition [23]: inactive | inhibition (MOLM-13 [24]): Dose-dependent-effect | IC50 (U-87 MG): > 30 µM | inhibition [25]: inactive | Vd [26]: 0.301 L/kg | Tmax [27]: 1.83 h | half-life [28]: 2.46 h | inhibition [29]: inactive | Activity [30]: Non-toxic | Activity [31]: Non-toxic | Activity [32]: Non-toxic | inhibition [33]: inactive
